Reference: patent publication US20250197420A1, “MACROCYCLIC COMPOUNDS, COMPOSITIONS, AND METHODS OF USING THEREOF” (Sionna Therapeutics Inc., priority 2022, published 2025)
Where two headings read alike, the source gives them in different places.

Experiments:
[1] = 19-membered ring
[2] = target: T1, Purified recombinant NBD1 (Homo sapiens, UniProt P13569); assay: Aggregation analysis using differential static light scattering (DSLS): thermal stability of NBD1; format: binding; settings: NBD1 0.2 mg/ml; Tagg of compound well minus average Tagg of DMSO control wells
T1 construct: Purified recombinant NBD1 was produced using previously described methods; made in house
T1 sequence (P13569 423-646 limits assumed): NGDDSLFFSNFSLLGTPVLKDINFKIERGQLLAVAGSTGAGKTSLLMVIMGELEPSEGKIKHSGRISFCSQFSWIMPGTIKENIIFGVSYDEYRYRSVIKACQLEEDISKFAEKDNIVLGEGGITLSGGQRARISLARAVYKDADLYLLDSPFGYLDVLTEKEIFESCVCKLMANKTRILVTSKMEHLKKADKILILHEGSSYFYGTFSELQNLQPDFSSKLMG
In short: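 ΔTagg is compound-well aggregation temperature minus the DMSO-control mean, each Tagg being the inflection point of light scattering measured by DSLS during a 1 °C/min ramp up to 70 °C. The protein was purified NBD1 (0.2 mg/ml) in pH 7.6 buffer containing 2 mM ATP, 5 mM MgCl2 and 1% glycerol.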

[3] = system: Primary human bronchial epithelial cells from a ΔF508 homozygous CF donor (CF-HBE cells); assay: TECC24 recording of CFTR-mediated transepithelial chloride transport, AUC fold over benchmark VX-809 @10 μM; format: cell-based; settings: 48 hours incubation, AUC of forskolin-stimulated IEQ
In short: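 Values are the forskolin-to-inhibitor-172 AUC of equivalent Cl− current, derived from transepithelial voltage and resistance, divided by the VX-809 AUC and binned as A <3, B 3–6, C 6–20. Cells were pre-incubated with compound for 48 h at 36.5 °C; the bath (pH 7.4) received benzamil 10 μM, forskolin 10 μM, then CFTRinh-172 20 μM.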

Compound	ring closure, isolated yield ([1]; from (5-(3-(3-(2-(3-Bromophenyl)pent-4-en-2-yl)-1-methyl-1H-1,2,4-triazol-5-yl)-4-fluorophenoxy)-6-fluoro-1 -(phenylsulfonyl)-NH-indol-4-yl)methyl methyl(2-methylpent-4-en-2-yl)carbamate, rcm bond, Grubbs II (0.4 eq), toluene, 5.1 mM, 60.0 °C) [%]	ring closure, isolated yield ([1]; amide bond, with chain assembly) [%]	DSLS (ΔTagg) [2]	TECC (test agent AUC divided by VX-809 AUC) [3]
CN1C(=O)OCc2c(c(F)cc3c2ccn3S(=O)(=O)c2ccccc2)Oc2ccc(F)c(c2)-c2nc(nn2C)C(C)(c2cccc(Br)c2)C/C=C\CC1(C)C (stereo not drawn)	60	–	–	–
Cc1ccc(S(=O)(=O)n2ccc3c4c(c(F)cc32)Oc2ccnc(c2)-c2nc(nn2C)[C@@](C)(c2cccc(I)c2)CCCCC(C)(C)CN(C)C(=O)C4)cc1	–	35	–	–
CC1(c2cccc(CCC(=O)O)c2)CCCCCC(=O)NCC(O)Cc2c(c(F)cc3[nH]ccc23)Oc2ccc(F)c(c2)-c2ncc1[nH]2 (stereo not drawn) [Compound 110, 3-[3-(24,30-Difluoro-15-hydroxy-6-methyl-12-oxo-26-oxa-3,13,21,32-tetrazapentacyclo[25.3.1.12,5.017,25.018,22]dotriaconta-1(31),2,4,17,19,22,24,27,29-nonaen-6-yl)phenyl]propanoic acid]	–	–	C (a value greater than 10 °C and less than or equal to 25 °C is marked “C”)	B (a value between 3 and 6 is marked “B”)
CC1(c2cccc(CCC(=O)O)c2)CCCCCC(=O)NCC(=O)Cc2c(c(F)cc3[nH]ccc23)Oc2ccc(F)c(c2)-c2ncc1[nH]2 (stereo not drawn) [Compound 111, 3-[3-(24,30-Difluoro-6-methyl-12,15-dioxo-26-oxa-3,13,21,32-tetrazapentacyclo[25.3.1.12,5.017,25.018,22]dotriaconta-1(31),2,4,17,19,22,24,27,29-nonaen-6-yl)phenyl]propanoic acid]	–	–	C (a value greater than 10 °C and less than or equal to 25 °C is marked “C”)	C (a value between 6 and 20 is marked “C”)
CN1CC(O)CCCCCC(C)(c2cccc(CCC(=O)O)c2)c2cnc([nH]2)-c2cc(ccc2F)Oc2c(F)cc3[nH]ccc3c2CC1=O (stereo not drawn) [Compound 112, 3-[3-(24,30-Difluoro-12-hydroxy-6,14-dimethyl-15-oxo-26-oxa-3,14,21,32-tetrazapentacyclo[25.3.1.12,5.017,25.018,22]dotriaconta-1(30),2,4,17(25),18(22),19,23,27(31),28-nonaen-6-yl)phenyl]propanoic acid]	–	–	C (a value greater than 10 °C and less than or equal to 25 °C is marked “C”)	B (a value between 3 and 6 is marked “B”)
CN1CC(=O)CCCCCC(C)(c2cccc(CCC(=O)O)c2)c2cnc([nH]2)-c2cc(ccc2F)Oc2c(F)cc3[nH]ccc3c2CC1=O (stereo not drawn) [Compound 113, 3-[3-(24,30-Difluoro-6,14-dimethyl-12,15-dioxo-26-oxa-3,14,21,32-tetrazapentacyclo[25.3.1.12,5.017,25.018,22]dotriaconta-1(30),2,4,17(25),18(22),19,23,27(31),28-nonaen-6-yl)phenyl]propanoic acid]	–	–	C (a value greater than 10 °C and less than or equal to 25 °C is marked “C”)	A (a TECC value less than 3 is marked “A”)
CC(Cc1cccc(C2(C)CCCCS(=O)(=O)NC(=O)CCc3c(c(F)cc4[nH]ccc34)Oc3ccc(F)c(c3)-c3nc2nn3C)c1)C(=O)O (stereo not drawn) [Compound 114, 3-[3-(23,29-Difluoro-3,6-dimethyl-11,11,13-trioxo-25-oxa-11λ6-thia-3,4,12,20,31-pentazapentacyclo[24.3.1.12,5.016,24.017,21]hentriaconta-1(30),2(31),4,16,18,21,23,26,28-nonaen-6-yl)phenyl]-2-methyl-propanoic acid]	–	–	C (a value greater than 10 °C and less than or equal to 25 °C is marked “C”)	A (a TECC value less than 3 is marked “A”)
Cn1nc2nc1-c1cc(ccc1F)Oc1c(F)cc3[nH]ccc3c1CCC(=O)NS(=O)(=O)CCCCC2(C)c1ccccc1 (stereo not drawn) [Compound 115]	–	–	C (a value greater than 10 °C and less than or equal to 25 °C is marked “C”)	A (a TECC value less than 3 is marked “A”)
C[C@@H](Cc1cccc(C2(C)CCCC(C)(C)NS(=O)(=O)CCc3c(c(F)cc4[nH]ccc34)Oc3ccc(F)c(c3)-c3nc2nn3C)c1)C(=O)O (stereo partly drawn) [Compound 116, (2S)-3-[3-(22,28-difluoro-3,6,10,10-tetramethyl-12,12-dioxo-24-oxa-12λ6-thia-3,4,11,19,30-pentazapentacyclo[23.3.1.12,5.015,23.016,20]triaconta-1(29),2(30),4,15,17,20,22,25,27-nonaen-6-yl)phenyl]-2-methyl-propanoic acid]	–	–	C (a value greater than 10 °C and less than or equal to 25 °C is marked “C”)	B (a value between 3 and 6 is marked “B”)
C[C@@H](Cc1cccc([C@@]2(C)CCCC(C)(C)CN(C)C(=O)CCc3c(c(F)cc4[nH]ccc34)Oc3ccnc(c3)-c3nc2nn3C)c1)C(=O)O [Compound 118, (2S)-3-[3-[(6R)-23-fluoro-3,6,10,10,12-pentamethyl-13-oxo-25-oxa-3,4,12,20,29,31-hexazapentacyclo[24.3.1.12,5.016,24.017,21]hentriaconta-1(30),2(31),4,16,18,21,23,26,28-nonaen-6-yl]phenyl]-2-methyl-propanoic acid]	–	–	C (a value greater than 10 °C and less than or equal to 25 °C is marked “C”)	B (a value between 3 and 6 is marked “B”)
C[C@H](Cc1cccc([C@@]2(C)CCCC(C)(C)CN(C)C(=O)CCc3c(c(F)cc4[nH]ccc34)Oc3ccnc(c3)-c3nc2nn3C)c1)C(=O)O [Compound 119, (2R)-3-[3-[(6R)-23-fluoro-3,6,10,10,12-pentamethyl-13-oxo-25-oxa-3,4,12,20,29,31-hexazapentacyclo[24.3.1.12,5.016,24.017,21]hentriaconta-1(30),2(31),4,16,18,21,23,26,28-nonaen-6-yl]phenyl]-2-methyl-propanoic acid]	–	–	B (a value above 5 °C and less than or equal to 10 °C is marked “B”)	B (a value between 3 and 6 is marked “B”)
CN1CC(C)(C)CCC[C@](C)(c2cccc(CC(C)(C)C(=O)O)c2)c2nc(n(C)n2)-c2cc(ccn2)Oc2c(F)cc3[nH]ccc3c2CCC1=O [Compound 120, 3-[3-[(6R)-23-fluoro-3,6,10,10,12-pentamethyl-13-oxo-25-oxa-3,4,12,20,29,31-hexazapentacyclo[24.3.1.12,5.016,24.017,21]hentriaconta-1(30),2(31),4,16,18,21,23,26,28-nonaen-6-yl]phenyl]-2,2-dimethyl-propanoic acid]	–	–	B (a value above 5 °C and less than or equal to 10 °C is marked “B”)	A (a TECC value less than 3 is marked “A”)
C[C@@H](Cc1cccc([C@@]2(C)CCCCC(C)(C)CN(C)C(=O)Cc3c(c(F)cc4[nH]ccc34)Oc3ccnc(c3)-c3nc2nn3C)c1)C(=O)O [Compound 121, (2S)-3-[3-[(6R)-23-fluoro-3,6,11,11,13-pentamethyl-14-oxo-25-oxa-3,4,13,20,29,31-hexazapentacyclo[24.3.1.12,5.016,24.017,21]hentriaconta-1(30),2(31),4,16,18,21,23,26,28-nonaen-6-yl]phenyl]-2-methyl-propanoic acid]	–	–	C (a value greater than 10 °C and less than or equal to 25 °C is marked “C”)	A (a TECC value less than 3 is marked “A”)
C[C@H](Cc1cccc([C@@]2(C)CCCCC(C)(C)CN(C)C(=O)Cc3c(c(F)cc4[nH]ccc34)Oc3ccnc(c3)-c3nc2nn3C)c1)C(=O)O [Compound 122, (2R)-3-[3-[(6R)-23-fluoro-3,6,11,11,13-pentamethyl-14-oxo-25-oxa-3,4,13,20,29,31-hexazapentacyclo[24.3.1.12,5.016,24.017,21]hentriaconta-1(30),2(31),4,16,18,21,23,26,28-nonaen-6-yl]phenyl]-2-methyl-propanoic acid]	–	–	B (a value above 5 °C and less than or equal to 10 °C is marked “B”)	A (a TECC value less than 3 is marked “A”)
CN1CC(C)(C)CCCC[C@](C)(c2cccc(CCC(=O)O)c2)c2nc(n(C)n2)-c2cc(ccn2)Oc2c(F)cc3[nH]ccc3c2CC1=O [Compound 123, 3-[3-[(6R)-23-Fluoro-3,6,11,11,13-pentamethyl-14-oxo-25-oxa-3,4,13,20,29,31-hexazapentacyclo[24.3.1.12,5.016,24.017,21]hentriaconta-1(30),2(31),4,16,18,21,23,26,28-nonaen-6-yl]phenyl]propanoic acid]	–	–	C (a value greater than 10 °C and less than or equal to 25 °C is marked “C”)	A (a TECC value less than 3 is marked “A”)
CN1CC(C)(C)CCCC[C@](C)(c2cccc(CC(C)(C)C(=O)O)c2)c2nc(n(C)n2)-c2cc(ccn2)Oc2c(F)cc3[nH]ccc3c2CC1=O [Compound 124, 3-[3-[(6R)-23-fluoro-3,6,11,11,13-pentamethyl-14-oxo-25-oxa-3,4,13,20,29,31-hexazapentacyclo[24.3.1.12,5.016,24.017,21]hentriaconta-1(30),2(31),4,16,18,21,23,26,28-nonaen-6-yl]phenyl]-2,2-dimethyl-propanoic acid]	–	–	A (an ΔTagg value less than or equal to 5 °C is marked “A”)	A (a TECC value less than 3 is marked “A”)
